These are literature values, as cited in patent publication US10610592B2, “Treatment of multiple sclerosis” (priority 2014, dated 2020).

For series [1] the following is noted: very prolonged elimination.
For series [2] the following is noted: patients treated with alemtuzumab.

As for `C/C(O)=C(\C#N)C(=O)Nc1ccc(C(F)(F)F)cc1` [Teriflunomide], the elimination time entry in series [1] is recorded as “up to 2 years”. As for “Alemtuzumab: monoclonal antibody that binds to proteins (CD-52) on mature lymphocytes”, the “patients who develop thyroid autoimmune diseases, and hematologic and renal complications” value in series [2] is recorded as “Approximately 40%”.
